The text below walks through data of patent EP0232017A1 (priority 1986, dated 1987).

The test system of the assay is anaerobes and Gram positive aerobes. Format: cell-based. The note with it: dipped-disc Biospectrum assay at 1 mg/ml; result in words, zone sizes only in image Tables XIII-XV.
On to `CCCCC(=O)N1CC(C(C)C)C1=O` (racemic) [2-azetidinone, 3-(1-methylethyl)-1-(1-oxopentyl)-, (±)-], for which the “activity vs. anaerobes and Gram positive aerobes” value is reported as “high activity”.

Consider `CC(=O)N1CC(C(C)C)C1=O` (racemic) [2-azetidinone, 1-acetyl-3-(1-methylethyl)-, (±)-], for which the “activity vs. anaerobes and Gram positive aerobes” value is “high activity”.

`CCCCCC(=O)N1C(=O)[C@@H]2CCCC[C@@H]21` (relative stereo) [Example 94, N-Hexanoyl-cis-3,4-tetramethylene-2-azetidinone]: the “activity vs. anaerobes and Gram positive aerobes” value is “high activity”.

In the case of `CCCC(=O)N1CC(C(C)C)C1=O` (stereo not drawn) [2-azetidinone, 3-(1-methylethyl)-1-(1-oxobutyl)-], the “activity vs. anaerobes and Gram positive aerobes” value is on record as “high activity”.

Consider `CCCCCC(=O)N1CC(C(C)C)C1=O` (stereo not drawn) [2-azetidinone, 3-(1-methylethyl)-1-(1-oxohexyl)-], for which the “activity vs. anaerobes and Gram positive aerobes” value was “high activity”.

On to `CCCCCCCC(=O)N1CC(C(C)C)C1=O` (racemic) [2-azetidinone, 3-(1-methlethyl)-1-(oxooctyl)-, (±)-], for which the “activity vs. anaerobes and Gram positive aerobes” value is given as “high activity”.
